In US8633232B2, “Compounds, compositions and methods of using same for modulating uric acid levels” (Ardea Biosciences, Inc., priority 2008, dated 2014):
Where a name gives a salt, the structure may show the parent alone. Each block holds one compound with its values, some of them ahead of it.

How the values were obtained:
[1] = test system: healthy adult male human volunteers; test: In vivo uric acid lowering activity, multiple ascending dose placebo-controlled study
Procedure: 16 healthy male individuals, aged 18-45 years inclusive, with a body mass index (BMI) within 18-30 kg/m^2 inclusive, having provided a written informed consent, non smokers for at least 6 months, not using any drug treatment for 2 weeks before screening (2 months for enzyme-inducing drugs) except occasional Acetaminophen. The individuals were confined at the clinical site beginning the day before dose administration until 72 hours after the final dose administration on Day 17 and returned for a follow-up visit on Day 21±1.
Matching placebo capsules were supplied as size 2 gelatin capsules. Individuals were randomized to receive the same number of placebo capsules as administered to the active individuals.
Capsules (active or placebo) were administered orally with 240 mL water 30 min after a standard breakfast (morning dose) and dinner (evening dose) for 14 days.
16 individuals (8 individuals [6 active and 2 placebo] per dose group). • a. Group 1: Placebo • b. Group 2: 300 mg (3×100-mg capsules) example 1 b.i.d. • c. Group 3: 500 mg (5×100-mg capsules) example 1 b.i.d.
Blood was collected from the individuals on days 0, 3, 7, 14 and at follow-up. Serum uric levels were measured using standard automated procedures. The results are shown in the table below (uric acid levels in μmol/L).

[2] = In vitro metabolic stability in human liver microsomes; assay type: in vitro ADME; details: 1 uM test compound, 1 mg/mL HLM, 1 mM NADPH, 30 minute incubation at 37° C.
Procedure: (§1) In vitro metabolic stability was assessed in rat and human liver microsomes (RLM/HLM). The incubation mixer contained the following: 1 uM test compound, 1 mg/mL HLM/RLM, 100 mM potassium phosphate buffer at pH 7.4, 1 mM NADPH and 5 mM MgCl2. This mixture was preincubated for 3 min before the 30 minute incubation at 37° C. The reaction was initiated with the addition of NADPH and terminated by the addition of equal volume of acetonitrile with internal standard. Incubation samples without NADPH were used as control samples. After vortexing and centrifugation, the supernatant was injected onto LC-MS/MS for quantitation.

[3] = In vitro metabolic stability in rat liver microsomes; assay type: in vitro ADME; details: 1 uM test compound, 1 mg/mL RLM, 1 mM NADPH, 30 minute incubation at 37° C.
Procedure: as §1

hURAT1 Transporter = target: T1, hURAT1 Transporter (Homo sapiens, UniProt Q96S37); test: Uric Acid Uptake Assay; assay type: cell-based; details: HEK293/urat1 cells; C14 Uric Acid 40 μM; 10 minutes at room temperature
T1 construct: Full-length human URAT1 gene (SLC22A12) was subcloned from plasmid pCMV6-XL5
T1 sequence (Q96S37 1-553): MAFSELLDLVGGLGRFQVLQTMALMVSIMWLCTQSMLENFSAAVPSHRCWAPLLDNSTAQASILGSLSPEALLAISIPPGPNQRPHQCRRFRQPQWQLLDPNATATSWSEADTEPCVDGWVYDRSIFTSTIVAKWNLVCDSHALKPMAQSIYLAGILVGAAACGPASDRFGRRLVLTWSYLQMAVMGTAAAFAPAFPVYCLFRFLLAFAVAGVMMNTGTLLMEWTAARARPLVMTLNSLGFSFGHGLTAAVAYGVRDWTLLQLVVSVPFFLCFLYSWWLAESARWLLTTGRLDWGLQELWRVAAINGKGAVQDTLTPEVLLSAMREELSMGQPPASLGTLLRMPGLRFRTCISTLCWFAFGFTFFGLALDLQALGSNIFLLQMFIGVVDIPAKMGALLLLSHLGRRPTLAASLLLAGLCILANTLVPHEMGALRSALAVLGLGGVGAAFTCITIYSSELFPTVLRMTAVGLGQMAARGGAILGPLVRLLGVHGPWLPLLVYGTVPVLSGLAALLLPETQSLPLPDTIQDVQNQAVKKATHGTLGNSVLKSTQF
Description: Creation of Stable Cell Lines Expressing hURAT1 Transporter: Full-length human URAT1 gene (SLC22A12) was subcloned from plasmid pCMV6-XL5 (Origene) into eukaryotic expression plasmid pCMV6/Neo (Origene) using Not I restriction sites. Gene sequencing confirmed the sequence of hURAT1 as outlined in Genbank (Accession #NM_144585.2). HEK293 human embryonic kidney cells (ATCC#CRL-1573) were propagated in EMEM tissue culture medium as described by ATCC in an atmosphere of 5% CO2 and 95% air. Transfections of HEK293 cells with the pCMV6/Neo/URAT1 construct were performed using L2000 transfection reagent (Invitrogen) as described by the manufacturer. After 24 h the transfected cells were split into 10 cm tissue culture plates and grown for 1 day after which the medium was replaced with fresh growth medium containing G418 (Gibco) at 0.5 mg/ml final concentration. Drug-resistant colonies were selected after approximately 8 days and then tested for ^14C-uric acid transport activity. The HEK293/urat1 cells are plated on Poly-D-Lysine Coated 96-well Plates at a density of 75,000 cells per well.
Cells were grown overnight (20-26 hours) at 37° C. in an incubator. Plates were allowed to come to room temperature and media was washed out with one wash of […] of Wash Buffer (125 mM Na Gluconate, 10 mM Hepes ph 7.3). Compound or vehicle is added in assay buffer with C14 Uric Acid for a final concentration of 40 μM Uric Acid with a specific activity of 54 mCi/mmol. Assay Buffer is 125 mM Sodium Gluconate, 4.8 mM Potassium Gluconate, 1.2 mM Potassium phosphate, monobasic, 1.2 mM magnesium sulfate, 1.3 mM Ca Gluconate, 5.6 mM Glucose, 25 mM HEPES, pH 7.3. Plates were incubated at room temperature for 10 minutes then washed 3 times with 50 μl Wash Buffer and 3 times with 250 μl Wash Buffer. Microscint 20 Scintillation Fluid was added and plates were incubated overnight at 45° C. to equilibrate. Plates are then read on the TopCount Plate Reader and an EC50 value generated. (See Enomoto et al, Nature, 2002, 417, 447-451 and Anzai et al, J. Biol. Chem., 2004, 279, 45942-45950.).
Compounds prepared as described herein, were examined according to the procedure described above and EC50 values generated. […] (N/A means data not available).

physchem = details: for Solubility: 22° C., 24 hours
Procedure: When it appeared the saturation point was being reached, addition was stopped, and the eppendorf vial was shaken at a constant speed of 1000 rpm at 22° C. for 24 hours. The tubes were then centrifuged for 5 minutes at 10-15,000 rpm, and checked for precipitation. Samples were diluted with acetonitrile/water, (1/1) (or iso-propyl alcohol for hexane) and analyzed by HPLC against known standards.

[4] = 300 mg b.i.d. oral, Day 3, n = 6, serum
[5] = 300 mg b.i.d. oral, Day 7, n = 6, serum
[6] = 300 mg b.i.d. oral, Day 14, n = 6, serum
[7] = 300 mg b.i.d. oral, Follow up, n = 6, serum
[8] = 500 mg b.i.d. oral, Day 7, n = 6, serum
[9] = 500 mg b.i.d. oral, Day 14, n = 6, serum
[10] = 500 mg b.i.d. oral, Follow up, n = 6, serum

SMILES: O=C(CSc1nnc(Br)n1-c1ccc(C2CC2)c2ccccc12)Nc1ccc(C(=O)[O-])cc1Cl.[K+] [4-(2-(5-bromo-4-(4-cyclopropylnaphthalen-1-yl)-4H-1,2,4-triazol-3-ylthio)acetamido)-3-chlorobenzoic acid, potassium salt]
- Uric acid (μmol/L) MEAN [1, 4]: -100.3229 µmol/L
- Uric acid (μmol/L) MEDIAN [1, 4]: -101.4134 µmol/L
- Uric acid (μmol/L) MEAN [1, 5]: -126.2959 µmol/L
- Uric acid (μmol/L) MEDIAN [1, 5]: -119.8522 µmol/L
- Uric acid (μmol/L) MEAN [1, 6]: -121.2401 µmol/L
- Uric acid (μmol/L) MEDIAN [1, 6]: -104.9822 µmol/L
- Uric acid (μmol/L) MEAN [1, 7]: -2.2801 µmol/L
- Uric acid (μmol/L) MEDIAN [1, 7]: 0.8922 µmol/L
- Uric acid (μmol/L) MEDIAN ([1]; 500 mg b.i.d. oral, Day 3, n = 6, serum): -112.1198 µmol/L
- Uric acid (μmol/L) MEAN [1, 8]: -127.6837 µmol/L
- Uric acid (μmol/L) MEDIAN [1, 8]: -144.2390 µmol/L
- Uric acid (μmol/L) MEAN [1, 9]: -111.8224 µmol/L
- Uric acid (μmol/L) MEDIAN [1, 9]: -124.9080 µmol/L
- Uric acid (μmol/L) MEAN [1, 10]: 27.2617 µmol/L
- Uric acid (μmol/L) MEDIAN [1, 10]: 27.3608 µmol/L

- Liver Microsome Stability % Remaining Human [2]: 97 ± 2%
- Liver Microsome Stability % Remaining Rat [3]: 98 ± 0.1%
- EC50 (hURAT1 Transporter): 1 to 1000 nM
SMILES: CC(C)(Sc1nnc(Br)n1-c1ccc(C2CC2)c2ccccc12)C(=O)O [Example 3, 2-(5-Bromo-4-(4-cyclopropylnaphthalen-1-yl)-4H-1,2,4-triazol-3-ylthio)-2-methylpropanoic acid]

- solubility at 24 h (physchem; 22 °C, pH 4.85, water, thermodynamic from solid, Solubility (mg/mL)): 49200 µg/mL
SMILES: O=C(O)CSc1nnc(Br)n1-c1ccc(C2CC2)c2ccccc12 [Example 104, Sodium 2-(5-bromo-4-(4-cyclopropylnaphthalen-1-yl)-4H-1,2,4-triazol-3-ylthio)acetate]

- Solubility (physchem; Acetone): 260 µg/mL
- Solubility (physchem; DMSO): ~54000 µg/mL
- Solubility (physchem; EtOAc): 55 µg/mL
- Solubility (physchem; Ethanol): 9100 µg/mL
- Solubility (physchem; IPA): 1600 µg/mL
- Solubility (physchem; PEG-400): 2400 µg/mL
SMILES: O=C(O)CSc1nnc(Br)n1-c1ccc(C2CC2)c2ccccc12 [Piperazine salt, 2-(5-bromo-4-(4-cyclopropylnaphthalen-1-yl)-4H-1,2,4-triazol-3-ylthio)acetate]

- EC50 (hURAT1 Transporter): > 30000 nM
SMILES: CCOC(=O)CSc1nnc(C(F)(F)F)n1-c1c(C)cc(C)c2c1CCCC2 [ethyl 2-(4-(2,4-dimethyl-5,6,7,8-tetrahydronaphthalen-1-yl)-5-(trifluoromethyl)-4H-1,2,4-triazol-3-ylthio)acetate]

- EC50 (hURAT1 Transporter): 1000 to 30000 nM
SMILES: CCOC(=O)CSc1nncn1-c1ccc(C)c2ccc(C)cc12 [ethyl 2-(4-(4,7-dimethylnaphthalen-1-yl)-4H-1,2,4-triazol-3-ylthio)acetate]

- EC50 (hURAT1 Transporter): > 30000 nM
SMILES: CCOC(=O)CSc1nnc(C(F)F)n1-c1ccc(CC)c2ccccc12 [ethyl 2-(5-(difluoromethyl)-4-(4-ethylnaphthalen-1-yl)-4H-1,2,4-triazol-3-ylthio)acetate]

- EC50 (hURAT1 Transporter): 1000 to 30000 nM
SMILES: CCOC(=O)CSc1nnc(CF)n1-c1ccc(C)c2c1CCCC2 [ethyl 2-(5-(fluoromethyl)-4-(4-methyl-5,6,7,8-tetrahydronaphthalen-1-yl)-4H-1,2,4-triazol-3-ylthio)acetate]

- EC50 (hURAT1 Transporter): > 30000 nM
SMILES: CCOC(=O)C(C)(C)Sc1nnc(N)n1-c1ccc(C2CC2)c2ccccc12 [ethyl 2-(5-amino-4-(4-cyclopropylnaphthalen-1-yl)-4H-1,2,4-triazol-3-ylthio)-2-methylpropanoate]

- EC50 (hURAT1 Transporter): 1 to 1000 nM
SMILES: CCOC(=O)C(C)(C)Sc1nnc(Br)n1-c1ccc(C2CC2)c2ccccc12 [ethyl 2-(5-bromo-4-(4-cyclopropylnaphthalen-1-yl)-4H-1,2,4-triazol-3-ylthio)-2-methylpropanoate]

- EC50 (hURAT1 Transporter): 1000 to 30000 nM
SMILES: CCOC(=O)CCSc1nnc(N)n1-c1ccc(C2CC2)c2ccccc12 [ethyl 3-(5-amino-4-(4-cyclopropylnaphthalen-1-yl)-4H-1,2,4-triazol-3-ylthio)propanoate]

- EC50 (hURAT1 Transporter): 1000 to 30000 nM
SMILES: CCOC(=O)CCSc1nnc(Br)n1-c1ccc(C2CC2)c2ccccc12 [ethyl 3-(5-bromo-4-(4-cyclopropylnaphthalen-1-yl)-4H-1,2,4-triazol-3-ylthio)propanoate]
